Test results from patent US9603862B2, “Activation and activators of SIRT5” (CORNELL UNIVERSITY, priority 2009, dated 2017).
Like-named read-outs stand apart in the source and are kept apart here. One block for each compound: values may come before it.

Target: T1, SIRT5 (Homo sapiens, UniProt Q9NXA8)
T1 sequence (Q9NXA8 37-310): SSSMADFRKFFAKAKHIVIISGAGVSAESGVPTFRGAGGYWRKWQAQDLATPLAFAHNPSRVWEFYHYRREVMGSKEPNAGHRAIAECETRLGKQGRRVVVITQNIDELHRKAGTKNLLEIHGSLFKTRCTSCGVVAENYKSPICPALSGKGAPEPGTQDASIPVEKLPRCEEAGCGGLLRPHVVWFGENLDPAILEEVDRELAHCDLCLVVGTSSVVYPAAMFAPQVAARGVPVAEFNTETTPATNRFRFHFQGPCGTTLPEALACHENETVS
Assay: SIRT5 deacetylation activation assay (radiolabelled NAD+, DEAE-Sephadex column, turnover with vs without activator)
Format: biochemical
Method: The reactions were processed using DEAE columns. […]
Reactions containing NAD^+ including [2,8A^−3H]-NAD^+, peptide substrate, with or without activator in 100 mM phosphate buffer (pH 7.5) were initiated by addition of SIRT5 enzyme to a concentration of 10 μM. Reactions were incubated at 37° C. for 1 h and quenched by addition of trifluoroacetic acid to pH 2. After centrifugation to remove the precipitates, reactions were loaded onto columns containing pre-equilibrated DEAE-Sephadex (equilibrated with 5 mM ammonium acetate pH 7). The reaction mixture was then eluted with eight fractions of 20 mM ammonium acetate pH 7 and three fractions of 300 mM ammonium acetate pH 7. The radioactivity contained in the eluents was then quantified by scintillation counter. Radiolabelled NAD^+ eluted in the 20 mM washes, while products ADPR and AADPR eluted in the 300 mM fractions. Radioactivity in the remaining NAD^+ fractions and the radioactivity in the product fractions were then converted to a turnover rate (1/s) by adjustment for specific radioactivity and enzyme concentration. The turnovers from the reaction with or without the activators were compared to show the percentage of activation.
Test compounds were assayed against SIRT5 as described in Example 1.

[1] = FIG. 4, 500 μM JB12, 500 μM NAD+, 1 mM of activator compound
[2] = FIG. 4, 500 μM JB12, 500 μM NAD+, 1 mM of activator compound, read-out: Km of activator for activation of SIRT5-catalyzed deacetylation
[3] = FIG. 3, varying concentrations of activator, 500 μM NAD+, 500 μM JB12, DEAE columns
[4] = FIG. 3, varying concentrations of activator, 500 μM NAD+, 500 μM JB12, DEAE columns, read-out: Km of activator for activation of SIRT5-catalyzed deacetylation (Michaelis Menten curve fitting)

SIRT5 % activated (at 600 μM test compound): 40% activated at 600 μM
Structure (SMILES): CCOC(=O)c1ccc[n+]([C@@H]2O[C@H](CO)C(O)C2O)c1 (stereo partly drawn)

Emax (FIG. 3, varying concentrations of activator, 500 μM NAD+, 500 μM JB12, DEAE columns, read-out: max activation of SIRT5 deacetylation): 200%
Structure (SMILES): NC(=O)c1ccc[n+]([C@@H]2O[C@H](CO)[C@@H](O)[C@H]2O)c1 [NR, nicotinamide riboside]

SIRT5 % activated (at 2.4 mM test compound): 90% activated at 2.4 mM
Structure (SMILES): NC(=O)c1ccc[n+]([C@@H]2O[C@H](CO)C(O)C2(F)F)c1 (stereo partly drawn)

SIRT5 % activated (at 600 μM test compound): 80% activated at 600 μM
Structure (SMILES): COC(=O)c1ccc[n+]([C@@H]2O[C@H](CO)C(O)C2O)c1 (stereo partly drawn)

Second part, the compound before the results:

Structure (SMILES): O=C([O-])c1ccc[n+]([C@@H]2O[C@H](CO)[C@@H](O)[C@H]2O)c1 [NaR, nicotinic acid riboside]
max activation of SIRT5 deacetylation [1]: 160%
Km [2]: 821 µM

Structure (SMILES): NC(=O)c1ccc[n+](C2O[C@H](CO)[C@@H](O)[C@H]2Cl)c1 (stereo partly drawn) [ribo-Cl-NR, 1-(2′-deoxy-2′-chloro-ribofuranosyl)-nicotinamide]
max activation of SIRT5 deacetylation [3]: 125%
Km [4]: 95 µM

Structure (SMILES): O=C(O)c1ccc[n+]([C@@H]2O[C@H](CO)C(O)C2O)c1 (stereo partly drawn)
SIRT5 % activated (at 800 μM test compound): 60% activated at 800 μM

Structure (SMILES): NC(=O)c1ccc[n+]([C@@H]2O[C@H](CO)C(O)C2O)c1 (stereo partly drawn)
SIRT5 % activated (at 800 μM test compound): 100% activated at 800 μM

Structure (SMILES): COB(OC)c1ccc[n+]([C@H]2CC(O)[C@@H](COP(=O)([O-])O)O2)c1 (stereo partly drawn)
SIRT5 % activated (at 160 μM test compound): 50% activated at 160 μM

Structure (SMILES): NC(=O)c1ccc[n+](C2O[C@H](CO)[C@@H](O)C2(F)F)c1 (stereo partly drawn) [gem-diF-NR, 1-(2′-deoxy-2′,2′-difluoro-ribofuranosyl)-nicotinamide]
max activation of SIRT5 deacetylation [3]: 120%
Km [4]: 50 µM

Structure (SMILES): COC(=O)c1ccc[n+]([C@@H]2O[C@H](CO)[C@@H](O)[C@H]2O)c1 [O-methyl NR, methyl nicotinate riboside]
max activation of SIRT5 deacetylation [1]: 190%
Km [2]: 93 µM

Structure (SMILES): NC(=O)c1ccc[n+]([C@@H]2O[C@H](CO)C(O)C2Cl)c1 (stereo partly drawn)
SIRT5 % activated (at 1 mM test compound): 75% activated at 1 mM

Structure (SMILES): CCOC(=O)c1ccc[n+]([C@@H]2O[C@H](CO)[C@@H](O)[C@H]2O)c1 [O-ethyl NR, ethyl nicotinate riboside]
max activation of SIRT5 deacetylation [1]: 150%
Km [2]: 323 µM
